This assay relates to C. elegans. The experiment in a line: microbe, parasite or virus in culture. The conditions noted are these: Caenorhabditis elegans.
The mark [1] stands for this setting: 0 h, read-out: Percentage of motility inhibition 0 h, Table S2, C. elegans SS assay, 110 μM, 0 h, averages of 4 data points.
Setting [2] is: 24 h, read-out: Percentage of motility inhibition 24 h, Table S2, C. elegans SS assay, 110 μM, 24 h, averages of 4 data points.
The mark [3] stands for this setting: 0 h, read-out: Percentage of motility inhibition 0 h.
Where [4] appears, read: 24 h, read-out: Percentage of motility inhibition 24 h.

The structures appear in SMILES notation. Read-outs that look alike come from different tables or passages of the source.

Take `C[C@@]12C[C@@]3(O)O[C@@H](O1)[C@]1(COC(=O)c4ccccc4)[C@H]3C[C@@]12O[C@@H]1O[C@H](COC(=O)c2ccccc2)[C@@H](O)[C@H](O)[C@H]1O` [Benzoylpaeoniflorin]: the inhibition at 110 µM runs as follows: under setting [1], 10%; under setting [2], 0%.

Turning to `OCc1ccccc1` [Benzyl alcohol], the inhibition at 110 µM is, setting by setting: under setting [1], 2%; under setting [2], 4%.

For the compound `O=C(OCc1ccccc1)c1ccccc1` [Benzyl benzoate], the inhibition at 110 µM is, setting by setting: under setting [1], 35%; under setting [2], 36%.

Turning to `COc1c(O)cc2c(c1O)[C@@H]1O[C@H](CO)[C@@H](O)[C@H](O)[C@H]1OC2=O` [Bergenin], the inhibition at 110 µM was 21% under setting [1] and 10% under setting [2].

As for `C=C1CCC[C@]2(C)CC[C@@H](C(C)(C)O)C[C@@H]12` [Beta-Eudesmol], the inhibition at 110 µM is 0% under setting [1] and 6% under setting [2].

Regarding `C=C(C)[C@@H]1CC[C@]2(COC(C)=O)CC[C@]3(C)[C@H](CC[C@@H]4[C@@]5(C)CC[C@H](OC(C)=O)C(C)(C)[C@@H]5CC[C@]43C)[C@@H]12` [Betulin diacetate], the inhibition at 110 µM was 11% under setting [1] and 0% under setting [2].

In the case of `C=C(C)[C@@H]1CC[C@]2(CO)CC[C@]3(C)[C@H](CC[C@@H]4[C@@]5(C)CC[C@H](O)C(C)(C)[C@@H]5CC[C@]43C)[C@@H]12` [Betulin], the inhibition at 110 µM under setting [1] amounted to 0% and the inhibition at 110 µM under setting [2] came out at 0%.

On to `C=C(C)[C@@H]1CC[C@]2(C(=O)O)CC[C@]3(C)[C@H](CC[C@@H]4[C@@]5(C)CC[C@H](OC(=O)CC(C)(C)C(=O)O)C(C)(C)[C@@H]5CC[C@]43C)[C@@H]12` [Bevirimat], for which the inhibition at 110 µM by setting is: under setting [1], 3%; under setting [2], 30%.

`C[C@@H](O)[C@H]1C(=O)N2C(C(=O)[O-])=C(SC3Cn4cnc[n+]4C3)[C@H](C)[C@H]12` (stereo partly shown) [Biapenem]: the inhibition at 110 µM by setting is: under setting [1], 18%; under setting [2], 3%.

For the compound `CN1CCc2cc3c(cc2[C@H]1[C@@H]1OC(=O)c2c1ccc1c2OCO1)OCO3` [Bicuculline], the inhibition at 110 µM reads like this: under setting [1], 0%; under setting [2], 8%.

Consider `COC(=O)c1cc(OC)c2c(c1-c1c(CO)cc(OC)c3c1OCO3)OCO2` [Bicyclol], for which the inhibition at 110 µM under setting [1] is 23% and the inhibition at 110 µM under setting [2] was found to be 4%.

With `c1ccc(-c2ccc(C(c3ccccc3)n3ccnc3)cc2)cc1` (stereo not shown) [Bifonazole], the inhibition at 110 µM under setting [1] was 25% and the inhibition at 110 µM under setting [2] was determined as 31%.

Regarding `CC(C)(C)[C@]1(O)CC2OC(=O)CC23C(=O)OC2OC(=O)[C@H](O)C231` (stereo partly shown) [Bilobalide], the inhibition at 110 µM runs as follows: under setting [1], 0%; under setting [2], 23%.

Consider `O=C(O)CCCC[C@@H]1SC[C@@H]2NC(=O)N[C@@H]21` [Biotin], for which the inhibition at 110 µM under setting [3] was 14% and the inhibition at 110 µM under setting [4] came out at 12%.

On to `CC(C)=C/C=C1\O[C@@H]2CC(C)=CC(=O)[C@@H]2[C@]1(C)O` [Bisabolangelone], for which the inhibition at 110 µM was determined as 18% under setting [1] and 13% under setting [2].

Consider `Oc1c(Cl)cc(Cl)cc1Sc1cc(Cl)cc(Cl)c1O` [Bithionol], for which the inhibition at 110 µM was 40% under setting [1] and 40% under setting [2].

For `CC(C)(C)NC(=O)N[C@H](C(=O)N1C[C@H]2[C@@H]([C@H]1C(=O)NC(CC1CCC1)C(=O)C(N)=O)C2(C)C)C(C)(C)C` (stereo partly shown) [Boceprevir], the inhibition at 110 µM stood at 28% under setting [1] and 39% under setting [2].

As to `COc1cc2c(cc1O)C[C@H]1c3c(cc(O)c(OC)c3-2)CCN1C` [Boldine], the inhibition at 110 µM runs as follows: under setting [1], 0%; under setting [2], 0%.

As for `O=C1N[C@@H](Cc2c[nH]c3ccccc23)C(=O)N2CCC[C@@H]12` [Brevianamide F], the inhibition at 110 µM runs as follows: under setting [3], 31%; under setting [4], 18%.

As for `C/C=C(/C)C(=O)O[C@H]1[C@@H]2[C@H](C)C(=O)O[C@@H]2C[C@@H](C)[C@@H]2C=CC(=O)[C@]21C` [Brevilin A], the inhibition at 110 µM is 0% under setting [3] and 0% under setting [4].

In the case of `O=c1[nH]c(=O)n([C@H]2C[C@H](O)[C@@H](CO)O2)cc1/C=C/Br` [Brivudine], the inhibition at 110 µM reads like this: under setting [3], 6%; under setting [4], 14%.

Regarding `O=[N+]([O-])C(Br)(CO)CO` [Bronopol], the inhibition at 110 µM is 19% under setting [1] and 24% under setting [2].

Take `Cc1ccc2c(Br)cc(Br)c(OC(=O)c3ccccc3)c2n1` [Broxaldine]: the inhibition at 110 µM was 26% under setting [1] and 0% under setting [2].

As to `Oc1c(Br)cc(Br)c2cccnc12` [Broxyquinoline], the inhibition at 110 µM under setting [1] is 0% and the inhibition at 110 µM under setting [2] stood at 8%.

In the case of `COC(=O)[C@@]12OC[C@]34[C@H]([C@@H](O)[C@@H]1O)[C@@]1(C)CC(=O)C(O)=C(C)[C@@H]1C[C@H]3OC(=O)[C@H](OC(=O)/C=C(\C)C(C)C)[C@@H]24` [Bruceantin], the inhibition at 110 µM is, setting by setting: under setting [1], 24%; under setting [2], 69%.

Take `COC(=O)[C@@]12OC[C@]34[C@H]([C@@H](O)[C@@H]1O)[C@@]1(C)CC(=O)C(O)=C(C)[C@@H]1C[C@H]3OC(=O)[C@H](OC(=O)CC(C)C)[C@@H]24` [Bruceine A]: the inhibition at 110 µM by setting is: under setting [3], 24%; under setting [4], 49%.

Regarding `C[C@H](CC[C@@H](O)C(C)(C)O)[C@H]1CC[C@@]2(C)[C@@H]3CC=C4[C@@H](CC[C@H](O)C4(C)C)[C@]3(C)C(=O)C[C@]12C` [Bryodulcosigenin], the inhibition at 110 µM under setting [1] stood at 16% and the inhibition at 110 µM under setting [2] was found to be 15%.

For `CC(C)(C)[C@H]1CC[C@H](CC2=C(O)C(=O)c3ccccc3C2=O)CC1` [Buparvaquone], the inhibition at 110 µM was found to be 6% under setting [1] and 12% under setting [2].

As for `CO[C@H]1C(=O)[C@]2(C)[C@@H](OC)C[C@H]3OC[C@@]3(OC(C)=O)[C@H]2[C@H](OC(=O)c2ccccc2)[C@]2(O)C[C@H](OC(=O)[C@H](O)[C@@H](NC(=O)OC(C)(C)C)c3ccccc3)C(C)=C1C2(C)C` [Cabazitaxel], the inhibition at 110 µM by setting is: under setting [1], 3%; under setting [2], 9%.

For `C[C@H]1CO[C@@H]2Cn3cc(C(=O)NCc4ccc(F)cc4F)c(=O)c(O)c3C(=O)N12` [Cabotegravir], the inhibition at 110 µM reads like this: under setting [1], 19%; under setting [2], 7%.

Take `O=C(O)c1cn(C2CC2)c2cc(N3CCC(O)(COc4ccc(N5C[C@H](CO)OC5=O)cc4F)CC3)c(F)cc2c1=O` [Cadazolid]: the inhibition at 110 µM by setting is: under setting [1], 5%; under setting [2], 31%.

On to `O=C(O)/C=C/c1ccc(O)c(O)c1` [Caffeic acid], for which the inhibition at 110 µM under setting [1] worked out at 20% and the inhibition at 110 µM under setting [2] is 13%.

Regarding `COc1ccc(-c2coc3cc(O)ccc3c2=O)cc1O` [Calycosin], the inhibition at 110 µM is, setting by setting: under setting [3], 16%; under setting [4], 1%.

Consider `C[C@@H]1O[C@@H](OC[C@H]2O[C@@H](Oc3c(-c4ccc(O)cc4)oc4cc(O)cc(O)c4c3=O)[C@H](O[C@@H]3O[C@H](CO)[C@H](O)[C@H](O)[C@H]3O)[C@@H](O)[C@@H]2O)[C@H](O)[C@H](O)[C@H]1O` [Camelliaside A], for which the inhibition at 110 µM came to 9% under setting [1] and 10% under setting [2].

Turning to `O=c1ccc2nccc3c4ccccc4n1c23` [Canthin‐6‐one], the inhibition at 110 µM turned out to be 0% under setting [1] and 15% under setting [2].

Regarding `COc1cc(CNC(=O)CCCC/C=C/C(C)C)ccc1O` [Capsaicin], the inhibition at 110 µM is, setting by setting: under setting [3], 0%; under setting [4], 0%.

For `COC(=O)N/N=C/c1c[n+]([O-])c2ccccc2[n+]1[O-]` [Carbadox], the inhibition at 110 µM was 4% under setting [1] and 0% under setting [2].

In the case of `COC(=O)Nc1nc2ccccc2[nH]1` [Carbendazim], the inhibition at 110 µM by setting is: under setting [1], 18%; under setting [2], 7%.

As for `O[C@H]1[C@H](O)[C@@H](O)CN2CC[C@H](O)[C@H]12` [Castanospermine], the inhibition at 110 µM is, setting by setting: under setting [1], 0%; under setting [2], 0%.

As to `COc1ccc(-c2oc3cc(OC)c(OC)c(O)c3c(=O)c2OC)cc1O` [Casticin], the inhibition at 110 µM reads like this: under setting [3], 9%; under setting [4], 0%.

Regarding `OC[C@H]1O[C@@H](O[C@@H]2OC=C[C@H]3[C@H](O)[C@@H]4O[C@]4(CO)[C@@H]23)[C@H](O)[C@@H](O)[C@@H]1O` [Catalpol], the inhibition at 110 µM reads like this: under setting [1], 0%; under setting [2], 16%.

For `C[C@@H]1O[C@@H](O[C@H]2[C@H](O)[C@@H](O)[C@H](OC[C@H]3O[C@@H](OC(=O)[C@]45CCC(C)(C)C[C@H]4C4=CC[C@@H]6[C@@]7(C)CC[C@H](O[C@@H]8OC[C@H](O)[C@H](O)[C@H]8O)[C@@](C)(CO)[C@@H]7CC[C@@]6(C)[C@]4(C)CC5)[C@H](O)[C@@H](O)[C@@H]3O)O[C@@H]2CO)[C@H](O)[C@H](O)[C@H]1O` [Cauloside D], the inhibition at 110 µM under setting [1] was determined as 6% and the inhibition at 110 µM under setting [2] came out at 17%.

Turning to `C[C@@H]1CC[C@H]2C(C)(C)[C@H]3C[C@@]12CC[C@@]3(C)O` [Cedrol], the inhibition at 110 µM runs as follows: under setting [1], 8%; under setting [2], 13%.

`C=CC1=C(C(=O)O)N2C(=O)[C@@H](NC(=O)/C(=N\O)c3csc(N)n3)[C@H]2SC1` [Cefdinir]: the inhibition at 110 µM by setting is: under setting [1], 0%; under setting [2], 0%.

Regarding `C=CC1=C(C(=O)O)N2C(=O)[C@@H](NC(=O)/C(=N\OCC(=O)O)c3csc(N)n3)[C@H]2SC1` [Cefixime], the inhibition at 110 µM runs as follows: under setting [1], 38%; under setting [2], 12%.

As to `CCN1CCN(C(=O)N[C@@H](C(=O)N[C@@H]2C(=O)N3C(C(=O)O)=C(CSc4nnnn4C)CS[C@H]23)c2ccc(O)cc2)C(=O)C1=O` [Cefoperazone], the inhibition at 110 µM under setting [1] is 22% and the inhibition at 110 µM under setting [2] came out at 7%.

As for `CC1=C(C(=O)O)N2C(=O)[C@@H](NC(=O)[C@H](N)C3=CCC=CC3)[C@H]2SC1` [Cefradine], the inhibition at 110 µM is, setting by setting: under setting [1], 37%; under setting [2], 11%.

By inhibition is commonly meant the percentage by which the read-out fell short of the control.

The values are drawn from PMC11855827, “High-Throughput Screening of Five Compound Libraries for Anthelmintic Activity and Toxicity Leads to the Discovery of Two Flavonoid Compounds” (International Journal of Molecular Sciences, 2025).
